Tested on: endothelin converting enzyme
Assay: Effects of various inhibitors on the activity of converting big endothelin-1 to endothelin-1 (residual enzymatic activity)
Type: biochemical, human
Settings: 37° C., 30 minutes preincubation, pH 7.0, untreated enzyme = 100
Procedure: 15 μl of a 20 nmol/ml big endothelin-1 solution was added to 0.3 ml of an enzyme solution (10 mM tris-hydrochloric acid-0.15M sodium chloride buffer; pH 7.0), and the mixture was reacted at 37° C. for 6 hours. After completion of the reaction, 6 μl of a 0.1M EDTA solution was added to terminate the reaction.
Subsequently, the resultant endothelin-1 was assayed according to a sandwich enzyme immunoassay (EIA) method. An enzymatic activity of converting 1 pmol of big endothelin-1 to endothelin-1 per hour under the above-described reaction conditions is termed 1 U (unit).
A sample and an endothelin standard solution of a predetermined concentration were respectively applied to a 96-hole microplate on which anti-endothelin monoclonal antibody had been immobilized to thereby cause the reaction. After washing the microplate, peroxidase-labeled anti-endothelin polyclonal antibody was added to thereby cause the reaction. After washing the microplate, activity of bound peroxidase was assayed. Endothelin-1 in the sample was assayed based on the calibration curve drawn by using endothelin standard solutions having a predetermined concentration of endothelin.
The enzyme of the invention was tested for the effects of various inhibitors against the activity of converting big endothelin-1 to endothelin-1.
The enzyme was incubated in 0.3 ml of a reaction solution (10 mM tris-hydrochloric acid-0.15M sodium chloride buffer; pH 7.0) containing various inhibitors at 37° C. for 30 minutes, and the residual enzymatic activity was measured in the above-described manner. Residual activities in the presence of various inhibitors are shown in Table 1 as relative activity taking the activity of untreated enzyme as 100.

Compound	Relative Activity (%) (inhibitor 0.1 mM)	other results
CC(C)C[C@H](NC(=O)[C@@H](NC(=O)N[C@@H](Cc1ccccc1)C(=O)O)[C@@H]1CCN=C(N)N1)C(=O)N[C@H](C=O)Cc1ccccc1 [Chymostatin]		Relative Activity (%) (inhibitor 0.01 mM): 20%
O=S(=O)(F)Cc1ccccc1 [Phenylmethanesulfonyl fluoride]		Relative Activity (%) (inhibitor 1 mM): 7%
CC(C)C[C@H](NP(=O)(O)O[C@@H]1O[C@@H](C)[C@H](O)[C@@H](O)[C@H]1O)C(=O)N[C@@H](Cc1c[nH]c2ccccc12)C(=O)O [Phosphoramidon]	0%	
O=C(O)CNC(=O)C(CS)Cc1ccccc1 (stereo not shown) [Thiorphan]	0%	
